This is an account of results in patent publication US7932239B2, “Methods of and compositions for reducing neuronal cell death” (Wisconsin Alumni Research Foundation, priority 2005, dated 2011).

In experiment [1] the test system is retinal ganglion cells (RGCs). As to conditions: previous studies, cited from earlier work.
The test system of experiment [2] is retinal ganglion cells (RGCs). The experiment is described as follows: Viability of acutely axotomized retinal ganglion cells in culture (DAPI retrograde labeling, calcein-AM staining) at 72 hours. The experiment is classed as cell-based, rat. The following applies: for rescue of RGCs (in words): at 100 μM. The protocol:
DAPI binds to nuclear DNA and fluoresces under UV light. At postnatal days eleven to thirteen, the animals were sacrificed by decapitation, the eyes enucleated, and the retinas dissected in Hank's balanced salt solution (HBSS). After two incubations in enzyme solution containing papain (3.7 U/ml), each for 30 minutes at 37° C., the retinas were gently triturated with a Pasteur pipette and plated on poly-L-lysine-coated 96-well flat-bottomed tissue culture plates (0.32 cm^2 surface area/well) at a density of approximately 2000 cells/mm^2. The cells were cultured for 72 hours in Neurobasal-A, B27 supplement lacking antioxidants in a humidified 5% CO2 incubator at 37° C.
Retinal Ganglion Cell Identification and Counting: RGCs were identified by the presence of DAPI, which appears blue when viewed with appropriate filters under epifluorescence. Cell viability was determined by metabolism of calcein-AM, which produces a green fluorescence when viewed with fluorescein filters. Cells were incubated in a 1 μM solution of calcein-AM in phosphate-buffered saline (PBS) for 30 minutes, after which the medium was replaced with fresh PBS. Wells were counted in duplicate or in triplicate.
Statistical Analysis: All RGC viability calculations were normalized to the control (no treatment) condition by dividing the mean number of living RGCs in an experimental condition by the mean in controls. Comparisons were by unpaired t-test.

In experiment [3] the test system is RGCs. The following applies: after one to twelve weeks; written in present tense.
From the text: Unilateral experimental glaucoma is induced in the rat using the Quigley protocol for laser ablation of the trabecular meshwork and of the circumferential episcleral vessels. […] The animals are anesthetized as in Example 2. A diode laser at 532 nm (0.2-0.4 watts and 0.3-0.7 second duration, depending on degree of pigmentation) is used to administer laser treatment at the trabecular meshwork and at the episcleral veins draining the perilimbal vessel plexus of vessel. In case a milder IOP rise is required, animals can be treated only at the trabecular meshwork. The laser treatment is repeated at 1 week if the IOP difference between the treated eye and the untreated eye is less than 6 mm Hg. Following laser treatment, sterile drug (i.e. PB1 or PB2) or control (BSS) is administered.
IOP is measured by putting a drop of 0.5% proparacaine in the eye, gently cradling the rat and touching the anesthetized eye with a Tonopen tonometer tip for a fraction of a second, usually for 3±2 times, more if the standard deviation is high. […] Depending on the experiment, the IOP is initially measured daily and then weekly.
After one to twelve weeks animals are sacrificed and RGC counts are performed as described in Example 2.
Experiment [4] has as its system RGCs. The experiment is described as follows: RGC death after optic nerve crush in vivo, intravitreal injection, RGC density in retinal whole mounts. As to conditions: 7 to 14 days after optic nerve crush, written in present tense. Details: species or system rat. On the procedure:
Optic Nerve Crush Surgery and Intravitreal Injections: Surgeries are conducted on adult (i.e. eight to twelve week old) rats that have previously received 1,1′-dioctadecyl-3,3,3′,3′-tetramethylindocarbocyanine (DiI) injections. All surgeries are done aseptically and are performed on the left eye only. Animals are anesthetized with a mixture of ketamine and xylazine. A limited lateral canthotomy is performed. The conjunctiva is then incised at the limbus and the subtenons space bluntly dissected posteriorly. […] The muscle cone is then entered and the optic nerve exposed. A longitudinal incision is made along the meningeal sheath to expose the optic nerve axons and to avoid disturbing the retinal blood supply. The axons of the optic nerve are then crushed with blunt forceps for 5 seconds 2 mm posterior to the globe under direct visualization. […]
RGC Density Determination: Retinal wholemounts are imaged with an Axiocarn HRc digital camera attached to a Zeiss Axiophot fluorescent microscope. […] The density of RGCs/mm^2 is determined by counting labeled DiI cells in three areas per retinal quadrant at three different eccentricities of the retinal radius for a total of twelve regions per retina. Cells positive for both DiI and BSL-I, as determined by bright yellow labeling when DiI (red) and BSL-I (green) images are merged, are subtracted from the total DiI count. […]

The test system of experiment [5] is RGCs. As to conditions: injected intravitreally into adult rats, previous studies; cited from earlier work.
The mark [6] stands for this setting: at 1 μM and 100 μM, 72 hours, p<0.05.

Regarding `O[C@H](CS)[C@H](O)CS` (racemic) [DTT, dithiothreitol], in experiment [1], the “effectiveness at nanomolar concentrations (in words)” value is “not effective”.
With `O=C(O)c1ccccc1P(c1ccccc1)c1ccccc1` [2DPBA, 2-(diphenylphosphino)benzoic acid], the “relative RGC survival (compared to control)” value (“relative RGC survival” for short) in experiment [2] (10 nM, 72 hours) was 216±18%. Further, the “neuroprotection of RGCs (in words)” value in experiment [2] (setting [6]) is reported as “significant protection”. The “concentration at which neuroprotective for RGCs (lowest)” value (“concentration at which neuroprotective” below) in experiment [2] (dose response, 72 hours) is on record as 10 nM.
On to `O=S(=O)([O-])c1cccc(P(c2cccc(S(=O)(=O)[O-])c2)c2cccc(S(=O)(=O)[O-])c2)c1.[Na+].[Na+].[Na+]` [3BSA, 3,3′,3″-phosphinidynetris(benzene-sulfonic acid) trisodium salt], for which, in experiment [2] (100 μM, 72 hours), the “relative RGC survival” value is on record as 206±6%. In experiment [2] (72 hours), the “rescue of RGCs (in words)” value is given as “rescue RGCs”.
For the compound `O=C(O)c1ccc(P(c2ccccc2)c2ccccc2)cc1` [4DPBA, 4-(diphenylphosphino)benzoic acid], the “relative RGC survival” value in experiment [2] (1 μM, 72 hours) was 183±19%. Moreover, in experiment [2] (setting [6]), the “neuroprotection of RGCs (in words)” value is “neuroprotection”.
With `[BH3-][P+](CCC(=O)OC)(CCC(=O)OC)c1ccccc1` [PB1, bis(3-propionic acid methyl ester)phenylphosphine borane complex], the “RGC cell death compared to controls (in words)” value in experiment [3] is “attenuated”. For the same compound, the “RGC density compared to controls (in words)” value in experiment [4] was “greater RGC density”. In addition, in experiment [2] (1 nM, 72 hours after axotomy), the “relative RGC survival” value is listed as 174±12%. In addition, the “neuroprotection of RGCs (in words)” value in experiment [2] (at picomolar concentrations, 72 hours) was “highly effective”. The “concentration at which neuroprotective” value in experiment [2] (dose response, 72 hours) is at least 1 nM.
Regarding `[BH3-][P+](CCC(=O)OC)(c1ccccc1)c1ccccc1` [PB2, (3-propionic acid methyl ester)diphenylphosphine borane complex], the “RGC cell death compared to controls (in words)” value in experiment [3] is “attenuated”. For the same compound, the “RGC density compared to controls (in words)” value in experiment [4] is “greater RGC density”. For the same compound, the “relative RGC survival” value in experiment [2] (10 pM, 72 hours after axotomy) was 180±10%. The “concentration at which neuroprotective” value in experiment [2] (dose response 1 pM to 100 μM, 72 hours) was at least 0.01 nM.
For `O=C(O)CCP(CCC(=O)O)CCC(=O)O` [TCEP, tris-(2-carboxyethyl) phosphine], the “RGC death after optic nerve crush (in words)” value in experiment [5] is listed as “inhibited RGC death”. Moreover, in experiment [1], the “effectiveness at nanomolar concentrations (in words)” value was “not effective” and the “concentration required for RGC neuroprotection” value is around 100 µM. Further, the “rescue of RGCs (in words)” value in experiment [2] (72 hours) is listed as “mildly rescued RGCs”.
